Experimental data taken from article PMC7457533, “Characterization of thrombin/factor Xa inhibitors in Rhizoma Chuanxiong through UPLC-MS-based multivariate statistical analysis” (Chinese Medicine, 2020).

Target: T1, thrombin (THR) (Homo sapiens, UniProt P00734)
T1 construct: gene F2
Assay: capillary electrophoresis immobilized enzyme microreactor, S-2238; percent inhibition at […]
Assay type: biochemical
Settings: read-out: Inhibition percentage (%)

Row | SMILES | inhibition at 500 µM
1 | CCC/C=C1\OC(=O)C2=C1CCC=C2 [d, Z-ligustilide] | 36.9 ± 2.37%
2 | CCCCC1OC(=O)C2=C1CCC=C2 (centres unmarked) [a, Senkyunolide A] | 41.9 ± 1.84%
